Where “and” joins values, the source holds several entries; their conditions need not be identical. Identical values can stand only once.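 Each compound was tested at five concentrations against cells in 96-well plates for 48 hours. At the GI50, growth is halved. TGI marks complete inhibition of growth.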

Common to all, as to assay: DTP human tumour cell line panel, 48 h
Experiment [1] deals with 786-0 renal.
In experiment [2] the test system is DU-145 prostate.
The subject of experiment [3] is MDA-MB-231 breast.
Experiment [4] deals with MOLT-4 leukemia.
For experiment [5], the system named is NCI-H460 lung.
Experiment [6] deals with NCI/ADR-RES ovarian.
Experiment [7] relates to OVCAR-8 ovarian.
For experiment [8], the system named is PC-3 prostate.
Experiment [9] deals with SF-268 CNS.
Experiment [10] relates to UACC-62 melanoma.

As for `CSc1nc(SC)c2c(C)c(Br)[nH]c2n1`, the total growth inhibition concentration (TGI) in experiment [1], in [2], in experiment [3], in experiment [4], in [5] and in [6] was over 100 µM each time. For the same molecule, the TGI in experiment [7], in experiment [8], in [9] and in experiment [10] was over 100 µM throughout.
In the case of `O=C(O)CC(S)C(=O)O.[Li+].[Sb]` (stereo unspecified), the GI50 was over 100 µM in [1]; over 100 µM in [2]; over 100 µM in [3]; 64.8 µM in experiment [4]; 89.5 µM in experiment [5]; over 100 µM in experiment [6]. For the same molecule, the GI50 in [7], in experiment [8], in experiment [9] and in experiment [10] was over 100 µM throughout. In addition, the TGI in [1], in experiment [2], in experiment [3], in [4], in experiment [5] and in [6] was over 100 µM each time. For the same molecule, the TGI in experiment [7], in [8], in experiment [9] and in experiment [10] was over 100 µM throughout.
Take `CC(=O)OCC1OC([S-])C(OC(C)=O)C(OC(C)=O)C1OC(C)=O.[Au+].c1ccc(CN2[CH-]N(Cc3ccccc3)C(c3ccccc3)=C2c2ccccc2)cc1`: the GI50 is 1.84 µM and 0.384 µM in experiment [1]; 2.86 µM and 0.509 µM in [2]; 1.84 µM and 0.281 µM in experiment [3]; 3.29 µM and 0.399 µM in experiment [4]; 3.71 µM and 0.732 µM in experiment [5]; 6.35 µM and 1.68 µM in [6]. For the same molecule, the GI50 in [7] was 3.17 µM and 0.479 µM; in experiment [9], 2.43 µM and 0.458 µM; in experiment [10] it was 2.15 µM and 0.249 µM. Further, the TGI is 3.63 µM and 1.18 µM in experiment [1]; 8.09 µM and 3.59 µM in [2]; 3.62 µM and 0.951 µM in experiment [3]; 15.5 µM and 2.42 µM in experiment [5]; 21.8 µM and 9.04 µM in [6]; 11.6 µM and 4.44 µM in [7]. In addition, the TGI in experiment [8] is 4.73 µM and 1.17 µM; in experiment [9], 6.11 µM and 1.78 µM; in experiment [10], 5.62 µM and 1.14 µM.
Consider `CC[C@H](C)[C@H](NC(=O)[C@H]1CCCCN1C)C(=O)N(C)[C@H](C[C@@H](OC(C)=O)c1nc(C(=O)NC23C4C5C2C2C3C4C52C(=O)OC)cs1)C(C)C` (stereo partly specified), for which the 50% growth inhibitory concentration (GI50) was 0.00359 µM and 0.0025 µM in experiment [1]; 0.00113 µM and 0.0025 µM in experiment [2]; 0.00429 µM and 0.0025 µM in [3]; 0.00485 µM and 0.0025 µM in experiment [4]; 0.003 µM and 0.0025 µM in experiment [5]; 0.0676 µM in experiment [6]. In addition, the GI50 was 0.00204 µM and 0.0025 µM in experiment [7]; 0.00263 µM and 0.0025 µM in experiment [8]; 0.00279 µM and 0.0025 µM in experiment [9]; 0.0011 µM and 0.0025 µM in experiment [10]. Besides, the total growth inhibition concentration (TGI) in experiment [1] was over 25 µM; in experiment [2], 0.031 µM; in experiment [3], over 25 µM; in experiment [4], over 25 µM; in [5], over 25 µM; in experiment [7] it was over 25 µM. For the same molecule, the TGI in experiment [8] was over 25 µM; in experiment [9] it was over 25 µM; in experiment [10], 20.1 µM.
`CCN(CC)CCOc1ccc(NC(=O)C(C(C)C)N2C(=O)/C(=C/c3ccc(Br)cc3)SC2=S)cc1` (stereo unspecified): the GI50 is 1.76 µM in [1]; 4.44 µM in [2]; 1.85 µM in experiment [3]; 2.68 µM in [4]; 1.85 µM in experiment [5]; 3.93 µM in experiment [6]. The GI50 was 3.24 µM in [7], 3.17 µM in experiment [8], 2.27 µM in experiment [9] and 1.81 µM in [10]. Besides, the TGI in experiment [1] was found to be 3.22 µM; in experiment [2], 14.7 µM; in experiment [3] it was 3.67 µM; in [4], 9.38 µM; in experiment [5], 3.51 µM; in [6], 14.3 µM. Besides, the concentration for total growth inhibition (TGI) in experiment [7] was 10.3 µM; in experiment [8], 12.1 µM; in [9], 5.85 µM; in [10], 3.53 µM.
With `CN(C)C[C@@H]1CCn2cc(c3ccccc32)C2=C(C(=O)NC2=O)c2cn(c3ccccc23)CCO1`, the GI50 in experiment [1] is 1.78 µM; in experiment [2] it was 2.75 µM; in [3] it was 1.68 µM; in experiment [4], 1.95 µM; in experiment [5], 1.48 µM; in experiment [6], 2.58 µM. For the same molecule, the GI50 was 0.598 µM in [7], 1.77 µM in experiment [8], 4.1 µM in experiment [9] and 0.792 µM in [10]. Moreover, the TGI is 3.93 µM in experiment [1]; over 10 µM in [2]; 9.49 µM in [3]; 5.59 µM in experiment [4]; 5.73 µM in experiment [5]; over 10 µM in [6]. Also, the concentration for total growth inhibition (TGI) in [7] is 8.33 µM; in experiment [8], over 10 µM; in experiment [9], over 10 µM; in experiment [10] it was over 10 µM.
In the case of `Cc1ccc2c(c1)C(=O)/C(=C/c1cccc(OCC(=O)c3ccc(Cl)cc3)c1)CS2`, the GI50 is 11.3 µM in experiment [1]; 21.9 µM in experiment [2]; 8.21 µM in experiment [3]; 2.69 µM in [4]; 18.8 µM in experiment [5]; 2.68 µM in experiment [6]. The GI50 was 4.53 µM in [7], 2.99 µM in experiment [8], 10.4 µM in experiment [9] and 9.14 µM in [10]. For the same molecule, the TGI in [1] was 24.6 µM; in experiment [2] it was over 100 µM; in [3] it was 76.1 µM; in experiment [4] it was 8.32 µM; in [5], over 100 µM; in [6], 9.02 µM. In addition, the results for the TGI in experiment [7], in experiment [9] and in experiment [10] were 24.1 µM, 33.3 µM and 25.8 µM, respectively.
